This is an account of results in PMC5983452 (PLoS ONE, 2018).

Data set [1] concerns A549 cells. Put plainly: Trametinib growth inhibition in combination with EPZ028862. In kind it is cell-based. The note with it: 2, 5 and 7 days. From the text: Plotted data is the average of three biological replicates. Error bars represent standard deviation. (PDF) Click here for additional data file.
Data set [2] can be described thus: in vitro. The class given is in vitro ADME, humans.
A short description of data set [3]: Hepatocyte stability, dog. The class given is in vitro ADME, beagle dogs. Conditions: male, beagle, cryopreserved hepatocytes, read-out: CLint measured with hepatocytes, Dog.
The nature of data set [4]: Dog pharmacokinetic study. In kind it is in vivo, male beagle dogs. The note with it: male Beagle. The procedure: 2. […] Food was returned 4 hours after dosing. […] 4. […] Food was returned 4 hours after dosing. […] Supplemental Results:SMYD2 compound characterization […] The […] nM (Figure S8A).
Data set [5] concerns lung cancer cell lines. The note with it: read-out: impact on proliferation of NSCLC and other lung cancer cell lines (none at concentrations as high as).
Data set [6] in a line: Plasma protein binding (equilibrium dialysis), human. The note with it: pH 7.4, Human fu (unbound fraction).
Experimental: Caco-2 permeability. Caco-2 cells (obtained from the ATCC), between passage numbers 40 to 60, were seeded onto Millipore
Multiscreen plates at 1x10^5 cells/cm2 in Dulbecco's Modified Eagle Medium. Media was changed every two or three days. On
Day 20, the permeability study was performed using Hanks Balanced Salt Solution (HBSS) pH 7.4 buffer with 25 mM HEPES and
Incubations were carried out in an atmosphere of 5% CO2 with a relative humidity of
The monolayers were prepared by rinsing both basolateral and apical surfaces twice with HBSS at 37°C. Cells were
then incubated with HBSS in both apical and basolateral compartments for 40 min to stabilize physiological parameters. HBSS […]
removed and apical and basolateral samples diluted for analysis by LC-MS/MS. Permeability was assessed in duplicate, on two
different occasions. […] Compounds were quantified by LC-MS/MS analysis using a 5 point calibration curve. The starting concentration (C0) was determined from the dosing solution and
experimental recovery calculated from C0 and both apical and basolateral compartment concentrations. […]
(Papp) for each compound was calculated as: (dQ/dt)/(C0xA), where dQ/dt is the rate of permeation of the drug across the cells, C0 […]
Plasma protein binding. Plasma protein binding was assessed by equilibrium dialysis utilizing the HT-dialysis cell format with a […]
For data set [7], the target named is SMYD2 (Homo sapiens, UniProt Q9NRG4). Description: ITC binding assay EPZ033294/SMYD2. Conditions: 25°C. More on the design: Full length FLAG-SMYD2 and C-terminally Avi-tagged full length SMYD2 (SMYD2-Avi) were cloned into pFastbac vectors; FLAG (N); His tag with TEV cleavage site (N, cleaved yes); made in house; host or cells: Sf9 insect cells (baculovirus). On the procedure:
The assay buffer contained 20 mM Tris-HCl pH 8.0, 100 mM sodium chloride, 1 mM TCEP, 5% glycerol, 50 μM S-adenosylmethionine (SAM), and 0.1% DMSO. […] The assay background signal was generated by injecting compound into buffer in the absence of enzyme and subtracted from the experimental data. The binding isotherm was fitted using the single site model in the Origin software for data analysis (OriginLab, Northampton, MA).

Several values for one entry are separate records, joined by “and”; a condition that tells them apart may be missing. Identical values can stand only once. Entries after “also recorded” stand apart in the source; their conditions may differ. Counter-ions that a name gives are not always drawn.

Sequence of SMYD2 (Q9NRG4 whole entry): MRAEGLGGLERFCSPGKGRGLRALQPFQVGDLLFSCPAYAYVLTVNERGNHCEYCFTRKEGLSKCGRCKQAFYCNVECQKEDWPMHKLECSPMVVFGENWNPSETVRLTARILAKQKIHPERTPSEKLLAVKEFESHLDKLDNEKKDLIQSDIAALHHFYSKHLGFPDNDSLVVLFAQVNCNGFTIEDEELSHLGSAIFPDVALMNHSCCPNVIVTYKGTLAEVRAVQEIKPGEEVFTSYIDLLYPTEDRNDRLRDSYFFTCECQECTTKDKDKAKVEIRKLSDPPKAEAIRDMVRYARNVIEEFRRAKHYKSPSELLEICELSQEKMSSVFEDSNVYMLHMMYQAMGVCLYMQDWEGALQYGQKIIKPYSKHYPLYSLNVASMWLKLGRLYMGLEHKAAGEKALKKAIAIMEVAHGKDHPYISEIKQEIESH

In the case of `NC1CCC(S(=O)(=O)N2C3CCC2CC(NC(=O)c2cc(C4CC4)on2)C3)CC1` [EPZ028862, N-((1R,3R,5S)-8-((1r,4R)-4-aminocyclohexylsulfonyl)-8-aza-bicyclo[3.2.1]octan-3-yl)-5-cyclopropylisoxazole-3-carboxamide hydrochloride], the “effect of 1 μM EPZ028862 on growth inhibition by trametinib” value in data set [1] is reported as “unaffected; also recorded: no effect”. The compound also gave an intrinsic clearance (microsomal CLint) at 1 µM in data set [2] (both sexes, human, microsomes, pH 7.4, CLint measured with liver microsomes) of less than 3 µL/min/mg. For the same compound, the “CLint measured with liver microsomes, Human” value in data set [2] (both, 1 µM, pH 7.4) is reported as 3.3 µL/min/mg microsomal protein. In addition, in data set [3], the hepatocyte CLint at 1 µM is less than 3 µL/min/1e6 cells. In data set [4] (plasma, IV 1 mg/kg, PO 5 mg/kg), the MRT was determined as 7 ± 0.2 h, the bioavailability is 70 ± 6% and the half-life was 5.4 ± 0.1 h. In data set [4] (plasma, IV 1 mg/kg, read-out: CLp), the clearance was determined as 13.9 ± 1.2 mL/min/kg. Besides, the Vd in data set [4] (plasma, IV 1 mg/kg, read-out: Vss) was found to be 5.8 ± 0.6 L/kg. Moreover, in data set [4] (plasma, PO 5 mg/kg), the time of peak concentration (Tmax) was 1.5 ± 0.9 h. The same compound showed a CL renal in data set [4] (urine and plasma, IV 1 mg/kg) of 1.97 ± 0.38 mL/min/kg. Besides, in data set [5], the IC50 was greater than 25000 nM.

On to `O=C(NC1CN(Cc2cnn(Cc3ccc(Cl)cc3)c2)C1)c1cn(C2CC2)nn1` [EPZ033294], for which the fraction unbound at 16 h, 1 µM in data set [6] was determined as 0.13. Besides, in data set [7], the “stoichiometry of binding (N) by ITC” value is 0.7 ± 1 and 0.7. For the same compound, in data set [7] (50 μM SAM, three test occasions, read-out: dissociation constant KD by ITC), the Kd was 8.3 ± 8.2 nM.

A word on the microsomal CLint: it is the capacity of the preparation to metabolise the compound, expressed as a volume cleared per time. Low values mean slow turnover, high ones rapid turnover. Broadly, the MRT is a mean duration of stay, worked out from the concentration-time curve. A word on the bioavailability: it is the share of a dose that reaches the circulation, judged against a reference dose that is usually intravenous. In general, half-life refers to the time needed for the level to fall by half in the phase considered. A lower half-life goes with fast loss. A word on the Tmax: it is the time from dosing to the highest level. As usually defined, the fraction unbound is free concentration divided by total concentration. Read a low fraction unbound as little free substance. In general, Kd refers to the constant that tells how readily two partners part at equilibrium.
